Experiments:
PRMT5/MEP50 = PRMT5/MEP50 (Homo sapiens (Human), UniProt O14744); assay: PRMT5/MEP50 enzyme inhibition assay, Assay 2 (384-well, MALDI mass spectrometry, histone H4 1-21 peptide); type: biochemical; details: 1 μM SAM, 0.1 μM histone H4 1-21 peptide, 18-hour incubation at rt
Experimental: Compounds were tested for inhibition of methyltransferase activity in 384-well plate assay format using mass spectrometry technology. In this enzyme inhibition assay, compounds were tested in a 11-dose IC50 mode with 3-serial dilution, in duplicate, starting at 1, 10, or 100 μM. Reactions were carried out at 1 μM SAM and 0.1 μM histone H4 1-21 peptide as substrates for methyl transfer. Following an 18-hour incubation at rt, the reaction was stopped with 0.5% formic acid. Products of the reaction were captured while unreacted substrates were washed away, prior to MALDI mass spectrometry detection and analysis. Percent enzyme activity was calculated based on no inhibitor DMSO control as 100% activity. EC50 values were determined in GraphPad Prism 8 using the [inhibitor] vs. response—Variable slope (four parameters) function.
Compounds of Formula (I) show activity in this assay. A value of ‘A’ in the table below indicates an IC50 of <1 nM, a value of ‘B’ indicates an IC50≥1 nM to ≤100 nM, and a value of ‘C’ indicates an IC50 value of >100 nM.

[1] = tested on: A549 lung carcinoma cells; assay: Cell proliferation assay, A549 (CellTiter-Glo, 7 days); type: cell-based; details: A549, 7 days, CellTiter-Glo 2.0
Experimental: (§1) HepG2 hepatoma cells (ATCC, HB-8065) were maintained in DMEM with high glucose (Lonza, 12-914F) supplemented with 10% fetal bovine serum (FBS; Biowest, S181B-500) and 2 mM L-glutamine (Biowest, X0551-100) at 37° C. and 5% CO2. A549 lung carcinoma cells (ATCC, CCL-185) were maintained in F-12K medium (ThermoFisher 21127030) supplemented with 10% FBS at 37° C. and 5% CO2. Exponentially growing HepG2 or A549 were plated in white, clear-bottom 96-well plates (Corning, 3903) at a cell density of 2000 (HepG2) or 350 (A549) cells per well in 199 μL of HepG2 medium. Next, 1 μL of a 5-fold 9-point dilution series of test compound in DMSO was added to the different wells. Cells were incubated at 37° C. 5% CO2 for 7 days. Cell viability was assessed on day 7 with the CellTiter-Glo 2.0 Cell Viability assay kit (Promega, G9243) to quantify the intracellular amounts of ATP: first, 100 μL of cell culture medium was removed from each well, next 100 μL of CellTiter-Glo® 2.0 Reagent was added and plates were shaken for 2 minutes on an orbital shaker. After 10 minutes stabilization at room temperature, read-out was performed on a ThermoFisher VarioSkan Lux plate reader. Counts were normalized to DMSO control (0% inhibition) and the cytotoxic control (100% inhibition) and EC50 values were determined in GraphPad Prism 8 using the [Agonist] vs. response—Variable slope (four parameters) function.
(§2) As shown by the data of Table 2, compounds of Formula (I) have activity in this assay. A value of ‘A’ in the table below indicates an EC50 of <20 nM, a value of ‘B’ indicates an EC50≥20 nM to <100 nM, a value of ‘C’ indicates an EC50 value of EC50≥100 nM to <1000 nM and a value of ‘D’ indicates an EC50≥1000 nM

HepG2 hepatoma cells = assay: Cell proliferation assay, HepG2 (CellTiter-Glo, 7 days); type: cell-based; details: HepG2, 7 days, CellTiter-Glo 2.0
Experimental: as §1, §2

Chain of PRMT5/MEP50 (O14744 whole entry): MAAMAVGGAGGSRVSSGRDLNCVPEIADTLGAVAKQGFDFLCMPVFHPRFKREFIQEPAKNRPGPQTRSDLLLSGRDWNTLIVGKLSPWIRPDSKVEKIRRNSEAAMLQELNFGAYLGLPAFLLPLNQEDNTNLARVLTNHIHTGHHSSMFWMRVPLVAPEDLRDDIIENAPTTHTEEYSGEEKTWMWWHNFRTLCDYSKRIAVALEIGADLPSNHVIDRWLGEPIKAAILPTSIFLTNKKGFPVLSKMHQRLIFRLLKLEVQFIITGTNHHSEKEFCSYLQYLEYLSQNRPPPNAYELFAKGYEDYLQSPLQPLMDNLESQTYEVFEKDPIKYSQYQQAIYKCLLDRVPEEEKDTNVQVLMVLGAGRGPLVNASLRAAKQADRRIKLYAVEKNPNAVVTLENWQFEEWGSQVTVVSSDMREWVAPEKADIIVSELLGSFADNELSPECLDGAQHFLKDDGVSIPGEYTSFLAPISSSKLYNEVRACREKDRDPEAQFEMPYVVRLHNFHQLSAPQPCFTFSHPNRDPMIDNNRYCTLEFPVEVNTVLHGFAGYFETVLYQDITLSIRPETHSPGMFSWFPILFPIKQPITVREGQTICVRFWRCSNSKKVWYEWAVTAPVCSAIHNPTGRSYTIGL
Chain of PRMT5/MEP50 (Q9BQA1 whole entry partner): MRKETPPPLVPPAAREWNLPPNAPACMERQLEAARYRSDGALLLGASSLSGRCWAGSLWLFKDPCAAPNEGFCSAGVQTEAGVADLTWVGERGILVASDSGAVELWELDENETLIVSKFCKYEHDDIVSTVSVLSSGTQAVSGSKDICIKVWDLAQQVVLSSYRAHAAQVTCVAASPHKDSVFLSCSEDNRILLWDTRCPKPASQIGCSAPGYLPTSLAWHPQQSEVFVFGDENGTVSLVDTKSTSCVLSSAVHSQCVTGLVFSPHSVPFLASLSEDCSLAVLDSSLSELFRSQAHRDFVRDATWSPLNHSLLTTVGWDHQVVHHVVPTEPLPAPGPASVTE

| IC50 (PRMT5/MEP50) | EC50 ([1]; Homo sapiens, A549, 168 h) | EC50 (HepG2 hepatoma cells; Homo sapiens, 168 h) | EC50 [1] | EC50 (HepG2 hepatoma cells) | SMILES |
| --- | --- | --- | --- | --- | --- |
| > 100 nM | ≥ 1000 nM | ≥ 1000 nM | – | – | Nc1nc2cc(OC[C@@H]3[C@@H](O)[C@@H](O)C4(n5ccc6c(N)ncnc65)C[C@@H]34)ccc2cc1Br (mixture of isomers) [Compound 17, rac-(2S,3R,4R,5S)-4-[(2-amino-3-bromo-7-quinolyl)oxymethyl]-1-(4-aminopyrrolo[2,3-d]pyrimidin-7-yl)bicyclo[3.1.0]hexane-2,3-diol] |
| – | < 20 nM | < 20 nM | – | – | C[C@]1(CCc2ccc3cc(Br)c(N)nc3c2)C[C@@H](n2ccc3c(N)ncnc32)[C@H](O)[C@@H]1O [Compound 1] |
| < 1 nM | 100 to 1000 nM | 100 to 1000 nM | – | – | Nc1nc2cc(OC[C@@]34C[C@@H]3[C@@H](n3ccc5c(N)ncnc53)[C@H](O)[C@@H]4O)ccc2cc1Br [Compound 15, (1R,2R,3S,4R,5S)-1-[(2-amino-3-bromo-7-quinolyl)oxymethyl]-4-(4-aminopyrrolo[2,3-d]pyrimidin-7-yl)bicyclo[3.1.0]hexane-2,3-diol] |
| < 1 nM | – | – | ≥ 1000 nM | ≥ 1000 nM | Cc1cnc2cc(OC[C@@]34C[C@@H]3[C@@H](n3ccc5c(N)ncnc53)[C@H](O)[C@@H]4O)ccn12 [Compound 16] |
| < 1 nM | – | – | < 20 nM | < 20 nM | C[C@]1(CCc2ccc3cc(Cl)c(N)nc3c2)C[C@@H](n2ccc3c(N)ncnc32)[C@H](O)[C@@H]1O [Compound 18] |
| < 1 nM | < 20 nM | < 20 nM | – | – | Nc1nc2cc(CC[C@@]34C[C@@H]3[C@@H](n3ccc5c(N)ncnc53)[C@H](O)[C@@H]4O)ccc2cc1Cl [Compound 19, (1R,2R,3S,4R,5S)-1-[2-(2-amino-3-chloro-7-quinolyl)ethyl]-4-(4-aminopyrrolo[2,3-d]pyrimidin-7-yl)bicyclo[3.1.0]hexane-2,3-diol] |
| 1 to 100 nM | 20 to 100 nM | < 20 nM | – | – | CCCCCOC(=O)Nc1ccc2ccc(CC[C@@]3(C)C[C@@H](n4ccc5c(N)ncnc54)[C@H](O)[C@@H]3O)cc2n1 [Compound 20, pentyl N-[7-[2-[(1S,2R,3S,4R)-4-(4-aminopyrrolo[2,3-d]pyrimidin-7-yl)-2,3-dihydroxy-1-methyl-cyclopentyl]ethyl]-2-quinolyl]carbamate] |
| > 100 nM | 100 to 1000 nM | 100 to 1000 nM | – | – | CCCCCOC(=O)Nc1ccc2cc(CC[C@@]3(C)C[C@@H](n4ccc5c(N)ncnc54)[C@H](O)[C@@H]3O)ccc2n1 [Compound 20-A] |
| < 1 nM | < 20 nM | < 20 nM | – | – | C[C@]1(CCc2ccc3ccc(N)nc3c2)C[C@@H](n2ccc3c(N)ncc(F)c32)[C@H](O)[C@@H]1O [Compound 21, (1S,2R,3S,5R)-5-(4-amino-7-fluoro-pyrrolo[3,2-c]pyridin-1-yl)-3-[2-(2-amino-7-quinolyl)ethyl]-3-methyl-cyclopentane-1,2-diol] |
| 1 to 100 nM | ≥ 1000 nM | ≥ 1000 nM | – | – | C[C@]1(CCc2ccc3nc(N)ccc3c2)C[C@@H](n2ccc3c(N)ncc(F)c32)[C@H](O)[C@@H]1O [Compound 21-A] |
| < 1 nM | 100 to 1000 nM | 100 to 1000 nM | – | – | Nc1ccc2ccc(CC[C@@]34CC3[C@@H](n3ccc5c(N)ncnc53)[C@H](O)[C@@H]4O)nc2n1 (stereo partly drawn) [Compound 22, (1R,2R,3S,4R)-1-[2-(7-amino-1,8-naphthyridin-2-yl)ethyl]-4-(4-aminopyrrolo[2,3-d]pyrimidin-7-yl)bicyclo[3.1.0]hexane-2,3-diol] |
| < 1 nM | – | – | < 20 nM | < 20 nM | C[C@]1(CCc2ccc3cc(C(F)F)c(N)nc3c2)C[C@@H](n2ccc3c(N)ncnc32)[C@H](O)[C@@H]1O [Compound 23] |
| > 100 nM | ≥ 1000 nM | ≥ 1000 nM | – | – | CC(C)C(=O)O[C@H]1[C@H](n2ccc3c(N)ncnc32)[C@H]2C[C@@]2(CCc2ccc3nc(N)ccc3c2)[C@H]1OC(=O)C(C)C [Compound 25-A, (1R,2R,3S,4R,5S)-4-(4-amino-7H-pyrrolo[2,3-d]pyrimidin-7-yl)-1-(2-(2-aminoquinolin-6-yl)ethyl)bicyclo[3.1.0]hexane-2,3-diyl bis(2-methylpropanoate)] |
| > 100 nM | 100 to 1000 nM | 20 to 100 nM | – | – | CC(C)C(=O)O[C@H]1[C@H](n2ccc3c(N)ncnc32)C[C@](C)(CCc2ccc3ccc(N)nc3c2)[C@H]1OC(=O)C(C)C [Compound 26, (1S,2R,3S,5R)-5-(4-amino-7H-pyrrolo[2,3-d]pyrimidin-7-yl)-3-(2-(2-aminoquinolin-7-yl)ethyl)-3-methylcyclopentane-1,2-diyl bis(2-methylpropanoate)] |
| > 100 nM | – | – | ≥ 1000 nM | ≥ 1000 nM | CC(C)C(=O)O[C@H]1[C@H](n2ccc3c(N)ncnc32)C[C@](C)(CCc2ccc3nc(N)ccc3c2)[C@H]1OC(=O)C(C)C [Compound 26-A] |
| < 1 nM | – | – | 20 to 100 nM | 20 to 100 nM | C[C@]1(CCc2ccc3cc(C#N)c(N)nc3c2)C[C@@H](n2ccc3c(N)ncnc32)[C@H](O)[C@@H]1O [Compound 27] |
| < 1 nM | – | – | 100 to 1000 nM | 20 to 100 nM | C[C@]1(CCc2ccc3cc(Cl)c(N)nc3c2)C[C@@H](n2ccc3c(N)ncnc32)[C@H](O)[C@]1(C)O [Compound 28] |
| – | < 20 nM | < 20 nM | – | – | Cc1ncnc2c1ccn2[C@@H]1C[C@](C)(CCc2cc(F)c3cc(Cl)c(N)nc3c2)[C@@H](O)[C@H]1O [Compound 32, (1S,2R,3S,5R)-3-(2-(2-amino-3-chloro-5-fluoroquinolin-7-yl)ethyl)-3-methyl-5-(4-methyl-7H-pyrrolo[2,3-d]pyrimidin-7-yl)cyclopentane-1,2-diol] |
| – | < 20 nM | < 20 nM | – | – | CCCCCOC(=O)Nc1nc2cc(CC[C@@]3(C)C[C@@H](n4ccc5c(N)ncnc54)[C@H](O)[C@@H]3O)ccc2cc1Cl [Compound 33, pentyl (7-(2-((1S,2R,3S,4R)-4-(4-amino-7H-pyrrolo[2,3-d]pyrimidin-7-yl)-2,3-dihydroxy-1-methylcyclopentyl)ethyl)-3-chloroquinolin-2-yl)carbamate] |
| – | < 20 nM | < 20 nM | – | – | C[C@]1(CCc2cc(F)c3cc(Cl)c(N)nc3c2)C[C@@H](n2ccc3c(N)ncc(F)c32)[C@H](O)[C@@H]1O [Compound 34, (1S,2R,3S,5R)-3-[2-(2-amino-3-chloro-5-fluoro-7-quinolyl)ethyl]-5-(4-amino-7-fluoro-pyrrolo[3,2-c]pyridin-1-yl)-3-methyl-cyclopentane-1,2-diol] |
| – | < 20 nM | < 20 nM | – | – | Nc1ccc2ccc(CC[C@@]3(F)C[C@@H](n4ccc5c(N)ncnc54)[C@H](O)[C@@H]3O)cc2n1 [Compound 35, (1S,2S,3R,5R)-5-(4-amino-7H-pyrrolo[2,3-d]pyrimidin-7-yl)-3-(2-(2-aminoquinolin-7-yl)ethyl)-3-fluorocyclopentane-1,2-diol] |
| < 1 nM | – | – | – | – | C[C@]1(CCc2cc(F)c3cc(Cl)c(N)nc3c2)C[C@@H](c2ccc3c(N)ncnn23)[C@H](O)[C@@H]1O [Compound 57] |
| < 1 nM | – | – | – | – | COC[C@]1(CCc2ccc3cc(Br)c(N)nc3c2)C[C@@H](n2ccc3c(N)ncnc32)[C@H](O)[C@@H]1O [Compound 58] |

| SMILES | IC50 (PRMT5/MEP50) | EC50 ([1]; Homo sapiens, A549, 168 h) | EC50 (HepG2 hepatoma cells; Homo sapiens, 168 h) | EC50 [1] | EC50 (HepG2 hepatoma cells) |
| --- | --- | --- | --- | --- | --- |
| C[C@]1(CCc2ccc3ccc(N)nc3n2)C[C@@H](n2ccc3c(N)ncnc32)[C@H](O)[C@@H]1O [Compound 24] | < 1 nM | – | – | 20 to 100 nM | 20 to 100 nM |
